Results on 15 molecules are retold here after ChEMBL document CHEMBL1147226, “dd-diketopiperazines: antibiotics active against Vibrio anguillarum isolated from marine bacteria associated with cultures of Pecten maximus” (2003).

For the assay, the system named is Vibrio anguillarum. As to the kind of experiment: Antimicrobial activity against Vibrio anguillarum after 24 to 48 hrs. The format is functional.

Converted amounts (≈) assume the structure as drawn.

Usually MIC stands for the smallest concentration in the dilution series that meets the test's criterion for growth inhibition. Read a high MIC as weaker potency.

In the case of `CC(C)[C@H]1NC(=O)[C@@H]2CCCN2C1=O`, the MIC worked out at 0.14 µg/mL (≈ 0.713 µM).

On to `O=C1N[C@@H](Cc2ccccc2)C(=O)N2CCC[C@H]12`, for which the lowest concentration to inhibit growth (MIC) was 0.1 µg/mL (≈ 0.409 µM). As for `O=C1N[C@H](Cc2ccccc2)C(=O)N2CCC[C@@H]12`, the figure is 0.13 µg/mL (≈ 0.532 µM); as for `CC(C)[C@@H]1NC(=O)[C@H]2CCCN2C1=O`, 0.11 µg/mL (≈ 0.561 µM). The result for `CC[C@@H](C)[C@@H]1NC(=O)[C@H]2CCCN2C1=O` reads 0.12 µg/mL (≈ 0.571 µM); that for `CC(C)C[C@H]1NC(=O)[C@@H](C(C)C)NC1=O`, 0.05 µg/mL (≈ 0.236 µM); that for `O=C1N[C@H](Cc2ccccc2)C(=O)N2CCC[C@H]12`, 0.03 µg/mL (≈ 0.123 µM). The result for `O=C1N[C@H](Cc2ccccc2)C(=O)N2C[C@H](O)C[C@H]12` reads 0.07 µg/mL (≈ 0.269 µM); that for `CC[C@@H](C)[C@H]1NC(=O)[C@H]2CCCN2C1=O`, 0.05 µg/mL (≈ 0.238 µM). As to `CC(C)C[C@@H]1NC(=O)[C@H]2CCCN2C1=O`, the MIC came out at 0.13 µg/mL (≈ 0.618 µM).

For the molecule `CC(C)C[C@H]1NC(=O)[C@@H]2CCCN2C1=O`, it took 0.12 µg/mL (≈ 0.571 µM) to inhibit growth (MIC). The result for `CC(C)[C@H]1NC(=O)[C@H]2CCCN2C1=O` reads 0.05 µg/mL (≈ 0.255 µM); that for `CC[C@@H](C)[C@H]1NC(=O)[C@@H]2CCCN2C1=O`, 0.11 µg/mL (≈ 0.523 µM). Molecule `CC(C)C[C@H]1NC(=O)[C@H]2CCCN2C1=O` yielded an MIC of 0.04 µg/mL (≈ 0.19 µM). `CC(C)C[C@H]1NC(=O)[C@@H](Cc2cnc[nH]2)NC1=O` came in with an MIC of 0.07 µg/mL (≈ 0.28 µM).
